Assay results: patent US4968690A (priority 1989, dated 1990)
Like-named read-outs stand apart in the source and are kept apart here.

Experiments:
[1] = background; cited from earlier work
[2] = background; cited from earlier work; remark: listed apart in the source
[3] = test system: enzyme which hydrolyzes S-adenosyl-L-homocysteine (AdoHcy); details: background; cited from earlier work
[4] = test system: Coxsackie A9 virus, strain 1861; assay: Antiviral effect, Coxsackie A9 in Viro E6 cells (plaque reduction); assay type: cell-based; details: read-out: % PFU Reduction, Coxsackie 9A
HL-60 cells [5] = assay: Cell viability / acute cytotoxicity in HL-60 cells; assay type: cell-based, human
From the text: This reduced toxicity provides excellent selectivity and potency as an antiviral agent.

[6] = test system: Polio Type III virus (Sabin oral vaccine strain); assay: microbe, parasite or virus in culture; assay type: cell-based
[7] = test system: cells used to support virus growth; assay: Toxicity to cells used to support virus growth; assay type: cell-based; details: listed concentrations 50, 25, 5 μg/ml
From the text: ^(a) Concentrations listed were nontoxic to cells used to support
^(a) Concentrations listed were noncytotoxic to cells used to support

[8] = target: hamster liver adenosine-homocystine (AdoHyc) hydrolase (Mesocricetus auratus, UniProt A0A1U7RAJ1); assay: Inhibition of hamster liver AdoHcy hydrolase
[9] = test system: Dengue virus Type II, strain 16681; assay: Antiviral effect, Dengue II in Vero E6 cells (plaque reduction); assay type: cell-based; details: Vero C1008, read-out: % PFU Reduction, Dengue II
malignant cell lines = details: subtoxic concentrations; cited from earlier work
H.Ep.-2 cells = details: background; cited from earlier work
L1210 cells = details: background; cited from earlier work
adenosine deaminase = details: background; cited from earlier work
L1210 leukemia = details: background; cited from earlier work
quiescent normal cells = details: subtoxic concentrations; cited from earlier work
[10] = test system: Dengue virus Type II, strain 16681; assay: Antiviral effect, Dengue Type II in BHK21 cells (plaque reduction); assay type: cell-based; details: for inhibition at 5 µg/mL / inhibition at 25 µg/mL / inhibition at 50 µg/mL: Dengue virus, BHK-21, BHK21 cells, read-out: % PFU Reduction, Dengue Type II; for inhibition at 5 µg/mL: 5 μg/ml; for inhibition at 25 µg/mL: 25 μg/ml; for inhibition at 50 µg/mL: 50 μg/ml
[11] = test system: Adenovirus Type 7, strain V1012; assay: Antiviral effect, Adenovirus 7 in Hep2 cells (plaque reduction); assay type: cell-based
From the text: ^(c) Adenovirus Type 7, strain V1012 in Hep2 cells.

[12] = test system: CTP, UTP, ATP, GTP levels in HL-60 cells; assay: Nucleotide (CTP, UTP, ATP, GTP) levels in HL-60 cells; assay type: cell-based, human
From the text: (§1) The effect of this compound on differentiation, and nucleic acid and nucleotide biosynthesis were examined in the malignant human promyelocytic leukemia cell line, HL-60. […] During this exposure interval, pronounced differentiation to mature myeloid cells occurred wherein 95% of the cell population reduced nitroblue tetrazolium four days after exposure to 10^-7 M CPE-C.

c-myc mRNA = c-myc mRNA levels in HL-60 cells; assay type: cell-based, human; details: preceding induction of mature myeloid cells
From the text: as §1

[13] = test system: Herpes Simplex Type II virus, strain 28382; assay: Antiviral effect, Herpes Simplex II in mink lung cells (plaque reduction); assay type: cell-based; details: for inhibition at 5 µg/mL: 5 μg/ml; for inhibition at 25 µg/mL: 25 μg/ml
From the text: ^(b) Herpes Simplex Type II virus, strain 28382 in mink lung cells.
^(d) Plaque forming units (PFU) is a measure of the infectivity of th
^(e) Multiplicity of infection (MOI) 2.0 PFU/ml.

[14] = test system: DNA synthesis / RNA synthesis in HL-60 cells; assay: DNA and RNA synthesis in HL-60 cells; assay type: cell-based, human
From the text: as §1

HL-60 cells [15] = assay: Growth inhibition and differentiation of HL-60 cells (nitroblue tetrazolium reduction); assay type: cell-based, human
From the text: as §1

viruses = assay: General antiviral evaluation; assay type: cell-based; details: compared with CPE-C
L1210 tumor cells = assay: Cytotoxicity against L1210 tumor cells in culture; assay type: cell-based; details: Mus musculus, 48 hour exposure
[16] = read-out: % PFU Reduction, Polio III
[17] = read-out: % PFU Reduction, Polio Type III
[18] = mink lung cells, first value of cell, presumably MOI 2.0 PFU/ml, read-out: % PFU Reduction, Herpes Simplex II (first value)
[19] = mink lung cells, second value of cell, read-out: % PFU Reduction, Herpes Simplex II (second value)

In the case of 3-deazaaristeromycin, the phosphorylation and deamination [1] is given as “resistance towards phosphorylation and deamination”, the side effects [2] is given as “devoid of some of the undesirable side effects” and the “inhibition of AdoHcy-hydrolyzing enzyme (in words)” value [3] is given as “very potent and specific inhibitor”.

Compound Nc1nccc2c1ncn2[C@@H]1C=C(CO)[C@@H](O)[C@H]1O [3-Deazaneplanocin A, 4-Amino-1-[(1'R,2'S,3'R)-4'-hydroxymethyl-2',3'-dihydroxy-4'-cyclopenten-1'-yl]imidazo[4,5-c]pyridine] has an inhibition at 5 µg/mL [4] of 69.4%, an inhibition at 25 µg/mL [4] of 77.2% and an inhibition at 50 µg/mL [4] of 89.4%. The “toxicity (in words)” value (HL-60 cells [5]; summary statement, compared with neplanocin A) was “without the toxicity of neplanocin A”, the “change in cell viability” value (HL-60 cells [5]; two days of continuous exposure) was “Little or no change in cell viability” and the inhibition at 5 µg/mL [6, 16] was 44.4%. For the same compound, the inhibition at 25 µg/mL [6, 16] was 77.7%, the inhibition at 50 µg/mL [6, 16] was 83.3% and the “toxicity to cells used to support virus growth” value (“toxicity to cells used” for short) [7] was “nontoxic”. The Ki [8] was 50 pM, the “inhibition of AdoHyc hydrolase (in words)” value ([8]; summary statement) was “particularly potent inhibitor” and the mode of inhibition ([8]; with adenosine) was “competitive inhibitor”. For the same compound, the inhibition at 5 µg/mL [9] was 14.2%, the inhibition at 25 µg/mL [9] was 95% and the inhibition at 50 µg/mL [9] was 98.9%.

For Nc1nccc2c1ncn2[C@@H]1O[C@H](CO)[C@@H](O)[C@H]1O [3-deazaadenosine], the phosphorylation and deamination [1] is given as “resistance towards phosphorylation and deamination”.

For Nc1ncnc2c1ncn2[C@@H]1C[C@H](CO)[C@@H](O)[C@H]1O [C-Ado], the “growth in malignant cell lines” value (malignant cell lines) is given as “inhibited growth”, the “cytotoxicity to H.Ep.-2 cells in culture” value (H.Ep.-2 cells) is given as “highly cytotoxic” and the “cytotoxicity to L1210 cells in culture” value (L1210 cells) is given as “highly cytotoxic”. For the same compound, the “affinity for adenosine deaminase relative to adenosine” value (adenosine deaminase) was “hundredfold lower”, the “deamination by adenosine deaminase” value (adenosine deaminase) was “also deaminated by adenosine deaminase” and the “activity in in vivo mouse L1210 model” value (L1210 leukemia) was “inactivity”. For the same compound, the “cell proliferation of quiescent normal cells” value (quiescent normal cells) was “induced cell proliferation”.

Nc1ccn([C@@H]2C=C(CO)[C@@H](O)[C@H]2O)c(=O)n1 [CPE-C, 4-amino-1-[(1'R,2'S,3'R)-4'-hydroxymethyl-4'-cyclopenten-1'-yl]-2(1H)pyrimidinone] showed an inhibition at 5 µg/mL [10] of 0%, an inhibition at 25 µg/mL [10] of 2.5% and an inhibition at 50 µg/mL [10] of 95%. It also gave an inhibition at 5 µg/mL ([11]; Human mastadenovirus B, HEp-2, 5 μg/ml, Hep2 cells, read-out: % PFU Reduction, Adenovirus 7) of 70%, an inhibition at 25 µg/mL ([11]; Human mastadenovirus B, HEp-2, 25 μg/ml, Hep2 cells, read-out: % PFU Reduction, Adenovirus 7) of 80% and an inhibition at 50 µg/mL ([11]; Human mastadenovirus B, HEp-2, 50 μg/ml, Hep2 cells, read-out: % PFU Reduction, Adenovirus 7) of 94%. For the same compound, the “antiviral activity (in words), Adenovirus Type 7” value ([11]; non-cytotoxic concentrations) was “excellent activity”, the “level of CTP (in words)” value ([12]; during CPE-C treatment) was “rapid and pronounced inhibition” and the “level of UTP, ATP or GTP” value ([12]; during CPE-C treatment) was “not of UTP, ATP or GTP”. The “CTP levels following drug removal” value ([12]; following drug removal) was “sustained reduction in CTP levels”, the inhibition at 5 µg/mL [6, 17] was 73.2% and the inhibition at 25 µg/mL [6, 17] was 82.1%. For the same compound, the inhibition at 50 µg/mL [6, 17] was 94.6%, the “toxicity to cells used” value [7] was “noncytotoxic” and the “c-myc mRNA levels” value (c-myc mRNA) was “inhibition of c-myc mRNA levels which was more pronounced than the reduction in total cellular RNA synthesis”. For the same compound, the inhibition at 5 µg/mL [13, 18] was 98.7%, the inhibition at 5 µg/mL [13, 19] was 98.6% and the inhibition at 25 µg/mL [13, 18] was 95.7%. For the same compound, the inhibition at 25 µg/mL [13, 19] was 99.5%, the inhibition at 50 µg/mL ([13]; 50 μg/ml, mink lung cells, second value of cell, read-out: % PFU Reduction, Herpes Simplex II (second value)) was 100% and the “antiviral activity (in words), Herpes Simplex Type II” value ([13]; non-cytotoxic concentrations) was “excellent activity”. For the same compound, the inhibition at 50 µg/mL ([13]; read-out: % PFU Reduction, Herpes Simplex II (first value)) was 97.4%, the RNA synthesis ([14]; 10^-7 M, relative to DNA synthesis) was “inhibited to a lesser extent” and the activity at 0.1 µM ([14]; Homo sapiens, HL-60, 24 hrs. after exposure to 10^-7 M) was 10%. The “inhibition of cell growth” value (HL-60 cells [15]; continuous exposure for 5 days, 10^-8 to 10^-6 M) was “progressive inhibition of cell growth”, the “differentiation to a non-malignant phenotype” value (HL-60 cells [15]; continuous exposure for 5 days, 10^-8 to 10^-6 M, nitroblue tetrazolium reduction) was “differentiation to a non-malignant phenotype” and the “cell population that reduced nitroblue tetrazolium” value (HL-60 cells [15]; four days after exposure to 10^-7 M) was 95 % of the cell population. For the same compound, the “activity as cancer cell differentiating agent (in words)” value (HL-60 cells [15]; summary statement) was “potent cancer cell differentiating agent”.

In the case of O=c1ccn([C@@H]2C=C(CO)[C@@H](O)[C@H]2O)c(=O)[nH]1 [CPE-U], the “antiviral activity (in words), Dengue Type II” value [10] is reported as “good activity”, the inhibition at 5 µg/mL [10] is reported as 2% and the inhibition at 25 µg/mL [10] is reported as 91%. For the same compound, the inhibition at 50 µg/mL [10] was 93%, the “general antiviral activity (in words)” value (viruses) was “less effective as a general antiviral agent” and the “toxicity to cells used” value [7] was “noncytotoxic”.

Nc1ncnc2c1nnn2[C@@H]1C=C(CO)[C@@H](O)[C@H]1O [Formula 8-Aza-CPE-A, 7-Amino-3-[(1'R,2'S,3'R)-4'-hydroxymethyl-2',3'-dihydroxy-4'-cyclopenten-1'-yl]-3H-1,2,3-triazolo[4,5-d]pyrimidine] gave an IC50 (L1210 tumor cells) of 3 µM.

For Nc1ncnc2c1ncn2[C@@H]1C=C(CO)[C@@H](O)[C@H]1O [Neplanocin A, 9-[(1'R,2'S,3'R)-4-Hydroxymethyl-2',3'-dihydroxy-4-cyclopenten-1'-yl]adenine], the “toxicity to HL-60 cells” value (HL-60 cells [5]; 24 hrs. exposure, equimolar concentration, vs 3-deazaneplanocin) is listed as “more toxic”, the phosphorylation [1] is listed as “readily phosphorylated” and the side effects [2] is listed as “multiplicity of side effects including cytotoxicity”. For the same compound, the “inhibition of AdoHcy-hydrolyzing enzyme (in words)” value [3] was “potent inhibitor”.
